Test results published in PubChem BioAssay AID248 (DTP/NCI, 2004).
Several values for one entry are separate records, joined by “and”; a condition that tells them apart may be missing. Equal values may be shown once. Toxic doses and inconclusive results are not listed.

Test system: L1210 leukemia ip in BDF1 mice, survival T/C
Experiment: NCI In Vivo Anticancer Drug Screen. Data for tumor model L1210 Leukemia (intraperitoneal) in B6D2F1 (BDF1) mice
Settings: higher = longer survival
Outline: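 Survival endpoint. Drug-treated group vs vehicle group, expressed as T divided by C. Tumor passaged by transplantation.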

[1] = endpoint: mean survival time, dose: 100.0 mg/kg/injection, schedule: Q01DX009 (ip), vehicle: Klucel (hydroxypropylcellulose) (HPC)
[2] = endpoint: mean survival time, dose: 200.0 mg/kg/injection, schedule: Q01DX009 (ip), vehicle: Klucel (hydroxypropylcellulose) (HPC)

Question: For CN=C(NC)c1ccc(NC(=NC)c2ccc(C(=NC)Nc3ccc(C(=NC)NC)cc3)cc2)cc1, which T/C (endpoint: mean survival time, dose: 0.5 mg/kg/injection, schedule: Q01DX Z (ip), vehicle: saline) is on record?
Answer: 96 % of control

Question: And the T/C (endpoint: mean survival time, dose: 0.8 mg/kg/injection, schedule: Q01DX Z (ip), vehicle: saline)?
Answer: 94 % of control

Question: And the T/C (endpoint: mean survival time, dose: 1.2 mg/kg/injection, schedule: Q01DX Z (ip), vehicle: saline)?
Answer: 100 % of control

Question: And the T/C (endpoint: mean survival time, dose: 1.7 mg/kg/injection, schedule: Q01DX Z (ip), vehicle: saline)?
Answer: 105 % of control

Question: What about the T/C (endpoint: mean survival time, dose: 1.77 mg/kg/injection, schedule: Q01DX Z (ip), vehicle: saline) of the same molecule?
Answer: 98 % of control

Question: What about the T/C (endpoint: mean survival time, dose: 2.66 mg/kg/injection, schedule: Q01DX Z (ip), vehicle: saline) of the same molecule?
Answer: 104 % of control

Question: And the T/C (endpoint: mean survival time, dose: 4.0 mg/kg/injection, schedule: Q01DX Z (ip), vehicle: saline)?
Answer: 89 % of control

Question: And the T/C (endpoint: mean survival time, dose: 6.0 mg/kg/injection, schedule: Q01DX Z (ip), vehicle: saline)?
Answer: 93 % of control and 103 % of control

Question: Which T/C (endpoint: mean survival time, dose: 200.0 mg/kg/injection, schedule: Q04DX003 (ip), vehicle: saline with Tween-80) does the source give for O=C1C(=O)C(c2ccccc2)(c2ccccc2)c2cc(-c3ccccc3)c(-c3ccccc3)cc21 here?
Answer: 93 % of control

Question: How did the T/C (endpoint: mean survival time, dose: 50.0 mg/kg/injection, schedule: Q01DX009 (ip), vehicle: saline) turn out when CCNCCCOCC was run?
Answer: 91 % of control

Question: And the T/C (endpoint: mean survival time, dose: 100.0 mg/kg/injection, schedule: Q04DX003 (ip), vehicle: saline)?
Answer: 103 % of control

Question: And the T/C (endpoint: mean survival time, dose: 200.0 mg/kg/injection, schedule: Q04DX003 (ip), vehicle: saline)?
Answer: 95 % of control

Question: With C=CCOCC(O)C[As](=O)(O)c1ccc(Cl)cc1 (stereo unspecified) as the molecule, how does the T/C (endpoint: mean survival time, dose: 1.56 mg/kg/injection, schedule: Q04DX003 (ip), vehicle: saline with Tween-80) read?
Answer: 104 % of control

Question: And the T/C (endpoint: mean survival time, dose: 3.13 mg/kg/injection, schedule: Q04DX003 (ip), vehicle: saline with Tween-80)?
Answer: 104 % of control

Question: And the T/C (endpoint: mean survival time, dose: 6.25 mg/kg/injection, schedule: Q04DX003 (ip), vehicle: saline with Tween-80)?
Answer: 112 % of control

Question: What does the source list for O=C(NNC(=O)OCCCl)OCCCl?
Answer: T/C (endpoint: mean survival time, dose: 111.0 mg/kg/injection, schedule: Q01DX Z (ip), vehicle: methylcellulose (MC)): 107 % of control; T/C (endpoint: mean survival time, dose: 166.0 mg/kg/injection, schedule: Q01DX Z (ip), vehicle: methylcellulose (MC)): 92 % of control; T/C (endpoint: mean survival time, dose: 250.0 mg/kg/injection, schedule: Q01DX Z (ip), vehicle: methylcellulose (MC)): 107 % of control

Question: With CC(=O)Nc1ccc(S(=O)(=O)c2ccc(NC(C)=O)cc2)cc1 as the molecule, how does the T/C (endpoint: mean survival time, dose: 50.0 mg/kg/injection, schedule: Q01DX009 (ip), vehicle: Klucel (hydroxypropylcellulose) (HPC)) read?
Answer: 103 % of control

Question: And the T/C [1]?
Answer: 93 % of control

Question: And the T/C [2]?
Answer: 97 % of control

Question: With O=C(ON=C(c1ccc(Cl)cc1)c1ccc(Cl)cc1)c1ccc(Cl)cc1 as the molecule, how does the T/C (endpoint: median survival time, dose: 300.0 mg/kg/injection, schedule: Q01DX009 (ip), vehicle: Klucel (hydroxypropylcellulose) (HPC)) read?
Answer: 157 % of control

Question: And the T/C (endpoint: median survival time, dose: 500.0 mg/kg/injection, schedule: Q01DX009 (ip), vehicle: Klucel (hydroxypropylcellulose) (HPC))?
Answer: 88 % of control

Question: What about the T/C (endpoint: median survival time, dose: 833.0 mg/kg/injection, schedule: Q01DX009 (ip), vehicle: Klucel (hydroxypropylcellulose) (HPC)) of the same molecule?
Answer: 74 % of control

Question: CC(C)(C)c1cc(C[P+](c2ccccc2)(c2ccccc2)c2ccccc2)cc(C(C)(C)C)c1O was tested. Which T/C (endpoint: mean survival time, dose: 1.56 mg/kg/injection, schedule: Q01DX009 (ip), vehicle: saline) did it give?
Answer: 106 % of control

Question: What about the T/C (endpoint: mean survival time, dose: 1.56 mg/kg/injection, schedule: Q04DX003 (ip), vehicle: saline) of the same molecule?
Answer: 91 % of control

Question: And the T/C (endpoint: mean survival time, dose: 3.12 mg/kg/injection, schedule: Q01DX009 (ip), vehicle: saline)?
Answer: 105 % of control

Question: What about the T/C (endpoint: mean survival time, dose: 3.12 mg/kg/injection, schedule: Q04DX003 (ip), vehicle: saline) of the same molecule?
Answer: 96 % of control

Question: What about the T/C (endpoint: mean survival time, dose: 6.25 mg/kg/injection, schedule: Q04DX003 (ip), vehicle: saline) of the same molecule?
Answer: 91 % of control

Question: Which T/C (endpoint: mean survival time, dose: 100.0 mg/kg/injection, schedule: Q04DX002 (ip), vehicle: saline with Tween-80) does the source give for Cc1cc(C)n2[nH]c(=O)cc2n1 here?
Answer: 98 % of control

Question: What about the T/C (endpoint: mean survival time, dose: 200.0 mg/kg/injection, schedule: Q04DX002 (ip), vehicle: saline with Tween-80) of the same molecule?
Answer: 104 % of control

Question: And the T/C (endpoint: mean survival time, dose: 400.0 mg/kg/injection, schedule: Q04DX002 (ip), vehicle: saline with Tween-80)?
Answer: 106 % of control

Question: Which results are given for CC(C)(C)c1ccc(N)cc1?
Answer: T/C (endpoint: mean survival time, dose: 12.5 mg/kg/injection, schedule: Q04DX003 (ip), vehicle: saline): 106 % of control; T/C (endpoint: mean survival time, dose: 25.0 mg/kg/injection, schedule: Q04DX003 (ip), vehicle: saline): 95 % of control; T/C (endpoint: mean survival time, dose: 50.0 mg/kg/injection, schedule: Q04DX003 (ip), vehicle: saline): 98 % of control

Question: Which T/C (endpoint: mean survival time, dose: 37.5 mg/kg/injection, schedule: Q01DX001 (ip), vehicle: Klucel (hydroxypropylcellulose) (HPC)) does the source give for Cc1c2ccccc2c(C)c2c1c(F)cc1ccccc12 here?
Answer: 120 % of control

Question: For CCOC(=O)c1cnc(SC)nc1Nc1ccc(C)cc1C, which T/C [1] is on record?
Answer: 96 % of control

Question: And the T/C [2]?
Answer: 101 % of control

Question: What about the T/C (endpoint: mean survival time, dose: 400.0 mg/kg/injection, schedule: Q01DX009 (ip), vehicle: Klucel (hydroxypropylcellulose) (HPC)) of the same molecule?
Answer: 109 % of control

Question: For COC(=O)CCC(=O)Nc1ccc(C(=O)CBr)cc1, which T/C (endpoint: mean survival time, dose: 6.25 mg/kg/injection, schedule: Q01DX009 (ip), vehicle: Klucel (hydroxypropylcellulose) (HPC)) is on record?
Answer: 98 % of control

Question: What about the T/C (endpoint: mean survival time, dose: 12.5 mg/kg/injection, schedule: Q01DX009 (ip), vehicle: Klucel (hydroxypropylcellulose) (HPC)) of the same molecule?
Answer: 96 % of control

Question: What about the T/C (endpoint: mean survival time, dose: 12.5 mg/kg/injection, schedule: Q04DX003 (ip), vehicle: Klucel (hydroxypropylcellulose) (HPC)) of the same molecule?
Answer: 97 % of control

Question: And the T/C (endpoint: mean survival time, dose: 25.0 mg/kg/injection, schedule: Q01DX009 (ip), vehicle: Klucel (hydroxypropylcellulose) (HPC))?
Answer: 102 % of control

Question: And the T/C (endpoint: mean survival time, dose: 25.0 mg/kg/injection, schedule: Q04DX003 (ip), vehicle: Klucel (hydroxypropylcellulose) (HPC))?
Answer: 96 % of control

Question: What about the T/C (endpoint: mean survival time, dose: 35.0 mg/kg/injection, schedule: Q01DX009 (ip), vehicle: Klucel (hydroxypropylcellulose) (HPC)) of the same molecule?
Answer: 95 % of control

Question: And the T/C (endpoint: mean survival time, dose: 55.0 mg/kg/injection, schedule: Q01DX009 (ip), vehicle: Klucel (hydroxypropylcellulose) (HPC))?
Answer: 93 % of control
